Results from PubChem BioAssay AID1159560 (GlaxoSmithKline (GSK), 2015).
Calls of active or inactive are those of the source. The rule behind the calls is not given here.

The compounds below were run on Leishmania donovani growth inhibition (assay: Leishmania donovani growth inhibition (AID 1159560);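 note: parasites exposed to compound for 72 h before the viability read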).

Compound	IC50
CN(C)Cc1cccc(Nc2nccc(-c3ccc(NCCN)c(C#N)c3)n2)c1	2.5 µM
O=[N+]([O-])c1ccc(-c2nnn(-c3ccc(Cl)cc3)n2)o1	6.3 µM
CCCc1cc(C(=O)Nc2ncc(-c3cccc(Br)c3)n2C)n[nH]1	6.3 µM
N#Cc1cc([N+](=O)[O-])ccc1NC1CCCCCC1	> 50 µM (inactive)
Cc1cc2cc(CNc3ccc4c(c3)OCO4)c(=O)n(CCO)c2cc1C	6.3 µM
COc1cccc(CN(C)Cc2nc(N)c3c(C)c(C)sc3n2)c1	32 µM
COc1cccc(S(=O)(=O)Nc2ccc3c(c2)CC(N2CCC(NC(=O)C4CC4)CC2)C3)c1 (stereo not drawn)	> 50 µM (inactive)
COc1cccc(C(=O)[C@H]2C[C@@H]2CN(Cc2ccccn2)Cc2ccccn2)c1	7.9 µM
COc1cc(-c2noc(CC#N)n2)ccc1OC(F)F	> 50 µM (inactive)
CCCNC(=O)Nc1cccc(-c2nc3ncccc3o2)c1	3.2 µM
N#Cc1ccc(S(=O)(=O)N2CCN(Cc3cccc(-c4ccncc4)c3)CC2)cc1	> 50 µM (inactive)
COc1ccc(Cc2nc(-c3ncc4cccnc4c3O)n[nH]2)cc1OC	0.32 µM
CCNc1cc(-c2ccccn2)nc(Nc2ccccc2)n1	2.5 µM
O=C(Nc1nc(-c2ccccn2)cs1)N1C[C@H]2C[C@@]2(c2ccccc2)C1	2 µM
COc1ccc2c(Cl)c(C(=O)N3CCC3)sc2c1Cl	> 50 µM (inactive)
O=C(Nc1ccc(Br)c(Cl)c1)Nc1ccc2c(c1)OCO2	> 50 µM (inactive)
N#Cc1ccccc1S(=O)(=O)N1CCN(C(=O)CNC(=O)c2ccc3c(c2)OCO3)CC1	0.63 µM
CCn1c(NC(=O)Cc2ccc(F)cc2)nc2ccccc21	10 µM
Cc1cc(C)n(-c2nc(NC(C)C)nc(NC(C)(C)C)n2)n1	3.2 µM
CC1(Oc2cncc(Cl)c2)CCN(Cc2cc3ccccc3[nH]2)C1 (stereo not drawn)	> 50 µM (inactive)
O=C(NNC(=O)c1ccccn1)c1ccc(-c2ccccc2)cc1	3.2 µM
COc1cnc2ccc(=O)n(CCN3CCC(NC/C=C/c4cc(F)ccc4F)CC3)c2c1	5 µM
Cn1nc(-c2ccc(NC(=O)Cc3ccccc3Cl)cc2)c2c(N)ncnc21	> 50 µM (inactive)
CNC(=O)Oc1ccc(C(=O)NCc2ccccc2)cc1OC(=O)NC	> 50 µM (inactive)
O=C1CN(C(=O)c2cccc(Nc3ncc(-c4ccc5c(c4)OCO5)cn3)c2)CCN1	1.6 µM
CCC(=O)Nc1ccc(-c2nc3ccc(Cl)cc3[nH]2)cc1	> 50 µM (inactive)
O=C(NCCc1nc(-c2ccc(F)c(F)c2)n[nH]1)C1CCCCC1	> 50 µM (inactive)

Compound	IC50
O=C(NCC(c1cccs1)N1CCOCC1)c1ccc([N+](=O)[O-])o1 (stereo not drawn)	32 µM
O=C(NCC1CCCCN1C(=O)c1cccc2ccccc12)c1ccccc1 (stereo not drawn)	> 50 µM (inactive)
CC(=O)Nc1ccc(CN2CCC(N3CC(c4ccccc4)(c4ccccc4)OCC3=O)CC2)cc1	0.5 µM
N#Cc1nc(C=Cc2ccccc2)oc1NCc1cccnc1	25 µM
O=S(=O)(c1cccc(CSc2nnc(-c3ccc4c(c3)OCO4)o2)c1)N1CCOCC1	0.5 µM
O=c1cc(CSc2ccc(Cl)cc2)nc(-c2ccccn2)[nH]1	1.6 µM
Cc1nc(C(=O)Nc2ccc3c(c2)OCO3)nn1-c1ccc(F)cc1	2 µM
O=C(CN(c1cccc(C(F)(F)F)c1)S(=O)(=O)c1ccc(Cl)cc1)NCc1ccc(F)c(F)c1	> 50 µM (inactive)
O=C1CN(Cc2ccco2)C2CS(=O)(=O)CC2N1c1ccc(Cl)cc1 (stereo not drawn)	> 50 µM (inactive)
CN(Cc1ccc(F)cc1)c1ccc(OCC(=O)N2CCCCC2c2cccnc2)nn1 (stereo not drawn)	16 µM
COc1ccc(CN(C)Cc2ccncc2)cc1-c1ccc(S(=O)(=O)NC2CCC2)s1	40 µM
COc1ccc2ncc(F)c(CCN3CC[C@@H](NC(=O)c4cc5c(s4)CCC5)[C@@H](O)C3)c2n1	1 µM
Nc1nc(-c2ccccn2)nc(-n2nc(-c3ccccc3)cc2N)n1	2 µM
CCOc1cc(NCCCN2CCN(C)CC2)c2ncccc2c1	40 µM
Cc1c([N+](=O)[O-])c(C(=O)Nc2sc3c(c2C#N)CCC(C)C3)nn1C (stereo not drawn)	25 µM
O=c1[nH]c(C=Cc2cccc(OCCOc3ccccc3)c2)nc(O)c1[N+](=O)[O-]	> 50 µM (inactive)
O=C(Nc1nc(-c2ccc(S(=O)(=O)N3CCOCC3)cc2)cs1)c1ccc([N+](=O)[O-])cc1	> 50 µM (inactive)
CN(Cc1cccnc1)Cc1ccc(N2CCN(C(=O)C3(c4ccc(Cl)cc4)CC3)CC2)nc1	32 µM
O=C(Nc1ccc(S(=O)(=O)N2CCCC2)cc1)c1ccc([N+](=O)[O-])s1	7.9 µM
NS(=O)(=O)c1ccc(CNC(=O)c2ccc([N+](=O)[O-])s2)cc1	32 µM
O=C(NC1CCN(C2Cc3ccc(NS(=O)(=O)c4cc(F)cc(F)c4)cc3C2)CC1)C1CC1 (stereo not drawn)	25 µM
O=C(NCc1ccc(-n2cccc2)cc1)c1nc(Cn2ccc([N+](=O)[O-])n2)no1	> 50 µM (inactive)
O=C1c2cnc(N3CCCC3)nc2CN1c1ccc2c(c1)OCO2	6.3 µM
O=c1[nH]c(NCCCNCc2cc(Br)cc(Br)c2)nc2ccsc12	16 µM
O=c1[nH]cnc2c([C@@H]3O[C@H](CO)[C@@H](O)[C@H]3O)[nH]nc12	0.4 µM
CNc1nc(C)nc(N2CCc3cc(C(=O)NCc4ccc(-c5ccn[nH]5)cc4Cl)ccc32)n1	2.5 µM
